These results are taken from patent US20140088039A1, “OPHTHALMIC SOLUTION CONTAINING HYALURONIC ACID OR SALT THEREOF AND PROPYLENE GLYCOL” (priority 2011, published 2014).

For this assay, the system named is SV40 immortalized human corneal epithelial cells (HCE-T). As to the kind of experiment: Evaluation test of protective effect on corneal epithelial cell (drying load). In kind it is cell-based. Conditions: 1 h pre-culture with 0.25% (w/v) propylene glycol and/or 0.03% (w/v) sodium hyaluronate, dried 7.5 minutes, FIG. 1. The protocol: SV40 immortalized human corneal epithelial cells: (HCE-T: RIKEN BioResource Center, Japan, Cell No.: RCB2280) were seeded to a 96-well plate (1×10^4 cells/well) and cultured for one day in an SHEM culture medium. On the next day, the culture medium was replaced with a D-MEM/F12 culture medium containing 0.25% (w/v) propylene glycol, 0.03% (w/v) sodium hyaluronate, or 0.25% (w/v) propylene glycol and 0.03% (w/v) sodium hyaluronate, and thereafter the corneal epithelial cells were cultured for one hour (hereinafter, each also referred to as a “propylene glycol alone group,” a “hyaluronic acid alone group,” or a “propylene glycol/hyaluronic acid combination group”). It is noted that a group that a culture medium was replaced with a D-MEM/F12 culture medium not containing a tested substance and thereafter the corneal epithelial cells were cultured for one hour was defined as a “vehicle group”. After culture, a culture medium of each group was replaced with a D-MEM/F12 culture medium not containing a tested substance and then cells were dried for 7.5 minutes. After drying load, cell viability was measured using Cell Proliferation Assay Kit (manufactured by Promega, catalogue No.: G3580) (corresponding to absorbance of 490 nm).

For the compound `CC(O)CO` (centres unmarked) [propylene glycol], the “Suppression of decrease in cell viability of corneal epithelial cells due to drying load” value is on record as “not sufficiently suppressed”.

Take sodium hyaluronate [hyaluronic acid]: the “Suppression of decrease in cell viability of corneal epithelial cells due to drying load” value is recorded as “not sufficiently suppressed”.
